Results: ChEMBL document CHEMBL5226357, “Engineering Selectivity for Reduced Toxicity of Bacterial Kinase Inhibitors Using Structure-Guided Medicinal Chemistry” (ACS Med Chem Lett, 2021)
In brackets after ≈: the same amount, converted by molar mass.

Assays:
[1] = biological target: T1, Serine/threonine-protein kinase PknB (Mycobacterium tuberculosis, UniProt P9WI81); experiment: Inhibition of Mycobacterium tuberculosis recombinant PknB (1 to 331 residues) expressed in Escherichia coli BL21-Rosetta cells using GarA and ATP as substrate preincubated with enzyme for 10 mins followed by substrate addition and measured after 1 hr by ATP-competitive biochemical assay
T1 sequence (P9WI81 whole entry): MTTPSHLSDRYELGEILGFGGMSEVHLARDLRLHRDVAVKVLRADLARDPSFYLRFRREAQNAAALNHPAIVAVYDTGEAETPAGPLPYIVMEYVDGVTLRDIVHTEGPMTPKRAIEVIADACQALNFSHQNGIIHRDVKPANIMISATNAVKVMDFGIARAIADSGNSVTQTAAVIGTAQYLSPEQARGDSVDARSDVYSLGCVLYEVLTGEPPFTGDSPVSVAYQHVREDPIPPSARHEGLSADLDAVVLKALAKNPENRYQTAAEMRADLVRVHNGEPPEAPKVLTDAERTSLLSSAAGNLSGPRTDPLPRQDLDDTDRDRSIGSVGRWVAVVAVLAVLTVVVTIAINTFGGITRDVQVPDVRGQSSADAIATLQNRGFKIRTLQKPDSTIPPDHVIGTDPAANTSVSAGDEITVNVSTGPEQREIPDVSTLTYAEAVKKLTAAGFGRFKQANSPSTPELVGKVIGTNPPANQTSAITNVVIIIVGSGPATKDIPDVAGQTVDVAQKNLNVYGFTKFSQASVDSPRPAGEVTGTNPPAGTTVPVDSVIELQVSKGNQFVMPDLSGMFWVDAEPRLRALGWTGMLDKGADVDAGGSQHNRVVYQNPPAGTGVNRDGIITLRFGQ

[2] = biological target: T1, Serine/threonine-protein kinase PknB; experiment: Binding affinity to Mycobacterium tuberculosis recombinant N-terminal His-tagged PknB (1 to 331 residues) expressed in Escherichia coli DH5alpha cells by microscale thermophoresis analysis
[3] = biological target: Cyclin-dependent kinase 2/cyclin A (Homo sapiens, UniProt P24941); experiment: Inhibition of human Cdk2/Cyclin A using Myelin basic protein as substrate by ATP competitive assay; type: toxicity
[4] = test system: Mycobacterium tuberculosis; experiment: Antimycobacterial activity against Mycobacterium tuberculosis H37Ra ATCC 25177 assessed as inhibition of bacterial growth incubated for 12 days by Alamar Blue based fluorescence analysis; type: functional; conditions: H37Ra ATCC 25177, 288 h, time 12 day
[5] = Lipophilicity, logD of the compound in octanol and phosphate buffer at pH 7.4 at 66.7 uM by LC-MS/MS analysis; type: physicochemical; conditions: octanol/water, pH 7.4, 66.7 µM
[6] = test system: THP-1; experiment: Cytotoxicity against human THP-1 cells assessed as reduction in cell viability incubated for 72 hrs by CellTiter-Glo luminescent assay; type: toxicity, cell-based; conditions: thp-1, 72 h
[7] = Toxicity against Zebrafish embryo assessed as embryo survival at 5 uM incubated for 5 days and measured daily; design: species or system Danio rerio; conditions: zebrafish embryos, time 5 day
[8] = biological target: T1, Serine/threonine-protein kinase PknB; experiment: Binding affinity to Mycobacterium tuberculosis partial length PknB (M1 to G279 residues) expressed in mammalian expression system by KdELECT kinase assay
[9] = biological target: CDK4/Cyclin D3 (Homo sapiens, UniProt P11802); experiment: Binding affinity to human full length CDK4 (M1 to E303 residues) expressed in mammalian expression system/CyclinD3 by KdELECT kinase assay; type: toxicity
[10] = biological target: Glycogen synthase kinase-3 beta (Homo sapiens, UniProt P49841); experiment: Binding affinity to human full length GSK-3 beta (M1 to T433 residues) expressed in mammalian expression system by KdELECT kinase assay; type: toxicity
[11] = biological target: Serine/threonine-protein kinase mTOR (Homo sapiens, UniProt P42345); experiment: Binding affinity to human partial length mTOR (L1382 to W2549 residues) expressed in mammalian expression system by KdELECT kinase assay; type: toxicity
[12] = biological target: Serine/threonine-protein kinase pim-1 (Homo sapiens, UniProt P11309); experiment: Binding affinity to human partial length Pim1 (A15 to K313 residues ) expressed in bacterial expression system by KdELECT kinase assay; type: toxicity
[13] = Selectivity ratio of Kd for human full length CDK4 (M1 to E303 residues) expressed in mammalian expression system/CyclinD3 to Kd for Mycobacterium tuberculosis partial length PknB (M1 to G279 residues) expressed in mammalian expression system
[14] = Selectivity ratio of Kd for human full length GSK-3 beta (M1 to T433 residues) expressed in mammalian expression system to Kd for Mycobacterium tuberculosis partial length PknB (M1 to G279 residues) expressed in mammalian expression system
[15] = Selectivity ratio of Kd for human partial length mTOR (L1382 to W2549 residues) expressed in mammalian expression system to Kd for Mycobacterium tuberculosis partial length PknB (M1 to G279 residues) expressed in mammalian expression system
[16] = Selectivity ratio of Kd for human partial length Pim1 (A15 to K313 residues ) expressed in bacterial expression system to Kd for Mycobacterium tuberculosis partial length PknB (M1 to G279 residues) expressed in mammalian expression system

Row | SMILES | IC50 [1] | Ki [1] | Kd [2] | IC50 [3] | MIC [4] | logD [5] | CC50 [6] | survival at 120 h, 5 µM [7] | Kd [8] | Kd [9] | Kd [10] | Kd [11] | Kd [12] | Selectivity ratio [13] | Selectivity ratio [14] | Selectivity ratio [15] | Selectivity ratio [16]
1 | CN1CCN(c2ccc(Nc3nccc(-c4ccc([N+](=O)[O-])cc4)n3)cc2C(F)(F)F)CC1 | 3.8 µM | 1100 nM | 410 nM | 0.18 µM | – | – | – | – | – | – | – | – | – | – | – | – | –
2 | CN1CCN(c2ccc(Nc3nccc(-c4ccc(F)cc4)n3)cc2C(F)(F)F)CC1 | > 40 µM | > 12000 nM | 3000 nM | 12 µM | – | – | – | – | – | – | – | – | – | – | – | – | –
3 | CN1CCN(c2ccc(Nc3nccc(-c4ccc(C#N)cc4)n3)cc2C(F)(F)F)CC1 | 5.1 µM | 1500 nM | 700 nM | 13 µM | – | – | – | – | – | – | – | – | – | – | – | – | –
4 | CN1CCN(c2ccc(Nc3nccc(-c4cccc(C#N)c4)n3)cc2C(F)(F)F)CC1 | 2.5 µM | 700 nM | 73 nM | > 40 µM | – | – | – | – | – | – | – | – | – | – | – | – | –
5 | CN1CCN(c2ccc(Nc3nccc(-c4ccc5ccccc5c4)n3)cc2C(F)(F)F)CC1 | 3.4 µM | 970 nM | 430 nM | > 40 µM | 6 µM (≈ 2.78 µg/mL) | > 5.7 | 3.04 µM | 100% | – | – | – | – | – | – | – | – | –
6 | CNc1cc(-c2ccnc(Nc3ccc(N4CCN(C)CC4)c(C(F)(F)F)c3)n2)ccn1 | 9.4 µM | 2700 nM | 920 nM | 39 µM | – | – | – | – | – | – | – | – | – | – | – | – | –
7 | CN1CCN(c2ccc(Nc3nccc(-c4ccc(Cl)cc4)n3)cc2C(F)(F)F)CC1 | 8.1 µM | 2400 nM | 2200 nM | > 40 µM | – | – | – | – | – | – | – | – | – | – | – | – | –
8 | CN1CCN(c2ccc(Nc3nccc(-c4ccccc4)n3)cc2C(F)(F)F)CC1 | 4.6 µM | 1300 nM | 1200 nM | > 40 µM | 25 µM (≈ 10.3 µg/mL) | 4.8 | 4.1 µM | 96% | 430 nM | 1200 nM | 2.8 µM | > 10 µM | 5200 nM | – | – | – | –
9 | CN1CCN(c2ccc(Nc3nccc(-c4cccc(F)c4)n3)cc2C(F)(F)F)CC1 | 6.1 µM | 1800 nM | 710 nM | 24 µM | – | – | – | – | – | – | – | – | – | – | – | – | –
10 | COc1cccc(-c2ccnc(Nc3ccc(N4CCN(C)CC4)c(C(F)(F)F)c3)n2)c1 | 6.6 µM | 1900 nM | 660 nM | 10 µM | – | – | – | – | – | – | – | – | – | – | – | – | –
11 | Cc1ccc(-c2ccnc(Nc3ccc(N4CCN(C)CC4)c(C(F)(F)F)c3)n2)cc1 | 1.6 µM | 440 nM | 30 nM | > 40 µM | 12 µM (≈ 5.13 µg/mL) | > 5.85 | 4.94 µM | 0% | – | – | – | – | – | – | – | – | –
12 | CN1CCN(c2ccc(Nc3nccc(-c4cccnc4)n3)cc2C(F)(F)F)CC1 | 1.7 µM | 470 nM | 61 nM | 9.3 µM | 100 µM (≈ 41.4 µg/mL) | 3.53 | 1.06 µM | 56% | – | – | – | – | – | – | – | – | –
13 | CN1CCN(c2ccc(Nc3nccc(-c4cccc([N+](=O)[O-])c4)n3)cc2C(F)(F)F)CC1 | 1.2 µM | 320 nM | 34 nM | > 40 µM | 19 µM (≈ 8.71 µg/mL) | 4.5 | 3.89 µM | 0% | 19 nM | 910 nM | 3.8 µM | 5.8 µM | 2200 nM | 48 | > 100 | > 100 | > 100
14 | CN1CCN(c2ccc(Nc3nccc(-c4ccnc(Cl)c4)n3)cc2C(F)(F)F)CC1 | 1.1 µM | 290 nM | 48 nM | 7.2 µM | 25 µM (≈ 11.2 µg/mL) | 4.3 | 1.14 µM | 89% | 47 nM | 440 nM | 2.6 µM | 0.69 µM | 2200 nM | – | – | – | –
15 | CN1CCN(c2ccc(Nc3nccc(-c4ccnc(NCc5ccccc5)c4)n3)cc2C(F)(F)F)CC1 | 7.9 µM | 2300 nM | 2100 nM | 7.3 µM | – | – | – | – | – | – | – | – | – | – | – | – | –
16 | CN1CCN(c2ccc(Nc3nccc(-c4cccc(Cl)c4)n3)cc2C(F)(F)F)CC1 | 4.3 µM | 1200 nM | 340 nM | > 40 µM | 12 µM (≈ 5.37 µg/mL) | > 6 | 5.28 µM | 57% | 180 nM | 3000 nM | 9.3 µM | > 10 µM | > 10000 nM | – | – | – | –
